Results taken from patent publication US20240285770A1, “PRECIPITATION SUPPRESSING AGENT” (Nippon Shinyaku Co., Ltd., priority 2021, published 2024).
Read-outs that look alike come from different tables or passages of the source.

What was measured:
[1] = Plasma concentrations and estimation of urinary D-mannitol concentration after administration to cynomolgus monkeys; assay type: in vivo; conditions: 500 mg/kg; for concentration at 4 h / concentration at 1 h / concentration at 8 h / AUC(0-t) / clearance: cynomolgus monkey, plasma; for concentration at 4 h / concentration at 1 h / concentration at 8 h / Plasma concentration 0 hr (a) / Plasma concentration 0.25 hr (b) / Plasma concentration 24 hr (f): average of 3 animals; for concentration at 1 h: read-out: Plasma concentration 1 hr (c); for concentration at 8 h: read-out: Plasma concentration 8 hr (e); for AUC(0-t): read-out: AUC0-24 hr (g); for clearance: read-out: CLtot (h) (converted); for Estimated urinary concentration at 0.25 hr (k): amount of urine up to 0.25 hr assumed 3.91 mL; for Average plasma concentration from 0 hr to 0.25 hr (i): average of values a and b; for Amount excreted up to 0.25 hr (j): calculated by using CLtot
Protocol: (§1) For setting the test conditions such as the concentrations of sugar and antisense oligomers assumed to be in urine, D-mannitol, which is […] and corresponds to a reduced form of D-mannose, and antisense oligomers were administered to cynomolgus monkeys, and the urinary concentration shortly after administration were estimated from the changes in plasma concentrations and the total body clearance.
20% D-mannitol was diluted to 50 mg/mL with physiological saline, the diluted solution thus obtained was administered at 10 mL/kg to 3 male and 3 female cynomolgus monkeys aged 1 to 2 year-old, and the plasma concentrations were then measured at 0 hours (immediately after administration), 0.25 hours, 1 hour, 4 hours, 8 hours, and 24 hours after administration (each of the values a, b, c, d, e, and f in Table 2 was an average value of 3 animals). From the values, the area under the plasma concentration-time curve (AUC0-24 hr) up to 24 hours after administration and the total body clearance (CLtot) were calculated (the values g and h in Table 2). Further, the plasma concentrations at 0 hours and 0.25 hours after administration (the values a and b in Table 2) were averaged to obtain the average plasma concentration from 0 hours to 0.25 hours (the value i in Table 2), and the amount of D-mannitol excreted per body weight up to 0.25 hours (the value j in Table 2) was calculated by using CLtot (the value h in Table 2). The amount of urine up to 0.25 hours after administration was assumed to be 3.91 mL, based on the fact that the daily amount of urine of cynomolgus monkeys (body weight: 5 kg) was 375 mL (B Clark, D A Smith Pharmacokinetics and toxicity testing. Crit Rev Toxicol. 1984; 12 (4): 343-85.), and the urinary mannitol concentration at 0.25 hours after administration was then estimated (the value k in Table 2).
The estimated urinary concentration obtained as above was averaged, and the urinary concentration shortly after administration in a case of administering 500 mg/kg of D-mannitol was estimated to be 127.5 mg/mL. Since D-mannitol is rarely distributed in the body and rapidly excreted in urine without undergoing metabolism, it can be assumed that there is a linear relationship between the amount administered and the urinary concentration. Accordingly, by using the following formulas, the urinary concentration was converted into the amount of D-mannitol administered, and the amount administered was then converted into concentrations in the formulations at the time of administration (at the time of use) according to the body weight and the amount of dosing solution.

[2] = Plasma concentrations and estimation of urinary PMO No. 12 concentration after administration to cynomolgus monkeys; assay type: in vivo; conditions: male cynomolgus monkeys; for Plasma concentration 0 hr (a) / Plasma concentration 0.25 hr (b) / Plasma concentration 0.5 hr (c) / Plasma concentration 1 hr (d) / Plasma concentration 2 hr (e) / Plasma concentration 6 hr (f) / Plasma concentration 24 hr (g): average of 3 animals; for Estimated urinary concentration at 0.25 hr (l): amount of urine up to 0.25 hr assumed 3.91 mL; for Average plasma concentration from 0 hr to 0.25 hr (j): average of values a and b; for Amount excreted up to 0.25 hr (k): calculated by using CLtot
Protocol: as §1
From the values, the area under the plasma concentration-time curve (AUC0-24 hr) up to 24 hours after administration and the total body clearance (CLtot) were calculated (the values h and i in Table 3). Further, the plasma concentrations at 0 hours and 0.25 hours after administration (the values a and b in Table 3) were averaged to obtain the average plasma concentration from 0 hours to 0.25 hours (the value j in Table 3), and the amount of antisense oligomer excreted per body weight up to 0.25 hours (the value k in Table 3) was calculated by using CLtot (the value i in Table 3). The amount of urine up to 0.25 hours after administration was assumed to be 3.91 mL, based on the fact that the daily amount of urine of cynomolgus monkeys (body weight: 5 kg) was 375 mL, and the urinary antisense oligomer concentration at 0.25 hours after administration was then estimated (the value 1 in Table 3).

## OC[C@@H](O)[C@@H](O)[C@H](O)[C@H](O)CO [D-Mannitol, D-mannitol]
[1]; female cynomolgus monkeys
  concentration at 4 h: 90.3 µg/mL
  concentration at 1 h: 720 µg/mL
  concentration at 8 h: 4.87 µg/mL
  AUC(0-t): 2830 µg·h/mL
  clearance: 2.95 mL/min/kg
  Plasma concentration 0 hr (a): 2950 µg/mL
  Plasma concentration 0.25 hr (b): 1490 µg/mL
  Plasma concentration 24 hr (f): Below detection limit
  Estimated urinary concentration at 0.25 hr (k): 126 mg/mL
  Average plasma concentration from 0 hr to 0.25 hr (i): 2220 µg/mL
  Amount excreted up to 0.25 hr (j): 98235 µg/kg
[1]; male cynomolgus monkeys
  concentration at 4 h: 89.2 µg/mL
  concentration at 1 h: 651 µg/mL
  concentration at 8 h: 4.67 µg/mL
  AUC(0-t): 2680 µg·h/mL
  clearance: 3.12 mL/min/kg
  Plasma concentration 0 hr (a): 2810 µg/mL
  Plasma concentration 0.25 hr (b): 1510 µg/mL
  Plasma concentration 24 hr (f): Below detection limit
  Estimated urinary concentration at 0.25 hr (k): 129 mg/mL
  Average plasma concentration from 0 hr to 0.25 hr (i): 2160 µg/mL
  Amount excreted up to 0.25 hr (j): 100980 µg/kg
[1]; cynomolgus monkeys, average of male and female estimates
  urinary concentration shortly after administration (estimated, averaged): 127.5 mg/mL

## PMO No. 12: phosphorodiamidate morpholino antisense oligomer, sequence CCTCCGGTTCTGAAGGTGTTC, 5′-end Group(2) (all phosphorodiamidate morpholino (PMO); further chemistry not fully specified)
[2]; 10 mg/kg
  AUC0-24 hr (h): 50.25 µg·h/mL
  CLtot (i): 3.317 mL/min/kg
  Plasma concentration 0 hr (a): 137.6 µg/mL
  Plasma concentration 0.25 hr (b): 30.95 µg/mL
  Plasma concentration 0.5 hr (c): 19.06 µg/mL
  Plasma concentration 1 hr (d): 9.79 µg/mL
  Plasma concentration 2 hr (e): 4.328 µg/mL
  Plasma concentration 6 hr (f): Below detection limit
  Plasma concentration 24 hr (g): Below detection limit
  Estimated urinary concentration at 0.25 hr (l): 5.362 mg/mL
  Average plasma concentration from 0 hr to 0.25 hr (j): 84.28 µg/mL
  Amount excreted up to 0.25 hr (k): 4193 µg/kg
[2]; 60 mg/kg
  AUC0-24 hr (h): 269.3 µg·h/mL
  CLtot (i): 3.713 mL/min/kg
  Plasma concentration 0 hr (a): 805.9 µg/mL
  Plasma concentration 0.25 hr (b): 154.7 µg/mL
  Plasma concentration 0.5 hr (c): 100.9 µg/mL
  Plasma concentration 1 hr (d): 45.93 µg/mL
  Plasma concentration 2 hr (e): 18.46 µg/mL
  Plasma concentration 6 hr (f): 1.045 µg/mL
  Plasma concentration 24 hr (g): Below detection limit
  Estimated urinary concentration at 0.25 hr (l): 34.21 mg/mL
  Average plasma concentration from 0 hr to 0.25 hr (j): 480.3 µg/mL
  Amount excreted up to 0.25 hr (k): 26753 µg/kg
